Entries after “also recorded” stand apart in the source; their conditions may differ.
Columns and labels:
TLR5 gene = TLR5 gene expression in macrophages (real-time PCR); format: cell-based, Human; conditions: macrophages (FIG. 6)
Experimental: (§1) For some experiments, Peripheral Blood Mononuclear Cells (PBMCs) were isolated from donors by Ficol gradient centrifugation. For other experiments, leukophoresed mononuclear cells were obtained from AllCells, LLC (Berkeley, Calif.). Monocyte derived macrophages and dendritic cells were prepared from PBMCs using positive selection of CD14+ cells with Miltenyi micro beads (Miltenyi Biotec Inc., Auburn, Calif.).
(§2) IRM compounds were prepared as 1000× stocks in DMSO. PBMCs were diluted to approximately 3.0×10^6 cells per mL in Ex-Vivo 20 media, and 1.0 mL was distributed per well in a 96 deep well plate. Cells were allowed to equilibrate at 37° C. for 1 hour, then IRM compound was added to the culture.
(§3) At each indicated time point, cells were harvested as follows. […]
(§4) The RNA was then ethanol precipitated, washed, and the pellet re-suspended in 10 μL of water. cDNA was made with the Invitrogen Superscript II Kit (Invitrogen Corp., Carlsbad, Calif.) using random priming and 2-3 μg of total RNA. […] Data was analyzed using SDS 2.0 software (Applied Biosystems, Inc.) using a threshold value of 0.1. The results were imported into Excel and the expression fold changes were calculated using the ΔΔCt method, (User Bulletin #2, PE Applied BioSystems, Inc.). […]

TLR3 gene [1] = test: TLR3 gene expression in macrophages (real-time PCR); format: cell-based, Human; conditions: macrophages (FIG. 5)
Experimental: as §1, §2
(§5) At each indicated time point, cells were harvested as follows. PBMCs and dendritic cells were harvested by centrifuging the plate at 1500 RPM, 360 RCF, at 4° C. in a Qiagen SIGMA centrifuge (Qiagen Inc., Valencia, Calif.). The media was then vacuum aspirated and 400 μL of RLT buffer with 1.0% 2-mercaptoethanol was added to each well. Macrophage cultures were harvested by aspiration of the media and direct addition of the RLT buffer to the well. The total RNA was purified using a semi-automated procedure on the Qiagen BioRobot 8000 (Qiagen Inc., Valencia, Calif.), with an incorporated DNase digestion step.
as §4, with “RNA. PCR was performed using an ABI 7900 (Applied Biosystems Corp., Foster City, Calif.), and the 384 well Microfluidic Card with Taqman™ chemistry, and the reactions were standardized using 2 ng/μL cDNA in the master mix.” for “RNA.”

TLR7 [2] = test: TLR7 gene expression in dendritic cells (real-time PCR); format: cell-based, Human
Experimental: as §1, with “Auburn, Calif.). Dendritic cells were differentiated in RPMI 1640 with 10% fetal bovine serum, using 33 ng/mL IL4 and 66 ng/mL GM-CSF, and macrophages were differentiated using 25 ng/mL M-CSF, for seven days at 37° C.” for “Auburn, Calif.).”
(§6) IRM compounds were prepared as 1000× stocks in DMSO. PBMCs were diluted to approximately 3.0×10^6 cells per mL in Ex-Vivo 20 media, and 1.0 mL was distributed per well in a 96 deep well plate. Cells were allowed to equilibrate at 37° C. for 1 hour, then IRM compound was added to the culture. […]
(§7) Purified total RNA was transferred to Costar 3565 plate and the optical density at 260 nm and 280 nm was read using a Molecular Devices SpectroMax 384 Plus (Molecular Devices Corp., Sunnyvale, Calif.). […] Data was analyzed using SDS 2.0 software (Applied Biosystems, Inc.) using a threshold value of 0.1. The results were imported into Excel and the expression fold changes were calculated using the ΔΔCt method, (User Bulletin #2, PE Applied BioSystems, Inc.). […]

TLR3 gene [3] = test: TLR3 gene expression in PBMCs (real-time PCR); format: cell-based, Human; conditions: in vitro (FIG. 1, FIG. 2)
Experimental: as §1, with “Auburn, Calif.). Dendritic cells were differentiated in RPMI 1640 with 10% fetal bovine serum, using 33 ng/mL IL4 and 66 ng/mL GM-CSF, and macrophages were differentiated using 25 ng/mL M-CSF, for seven days at 37° C.” for “Auburn, Calif.).”
as §2, §5
(§8) Purified total RNA was transferred to Costar 3565 plate and the optical density at 260 nm and 280 nm was read using a Molecular Devices SpectroMax 384 Plus (Molecular Devices Corp., Sunnyvale, Calif.). The RNA was then ethanol precipitated, washed, and the pellet re-suspended in 10 μL of water. cDNA was made with the Invitrogen Superscript II Kit (Invitrogen Corp., Carlsbad, Calif.) using random priming and 2-3 μg of total RNA. PCR was performed using an ABI 7900 (Applied Biosystems Corp., Foster City, Calif.), and the 384 well Microfluidic Card with Taqman™ chemistry, and the reactions were standardized using 2 ng/μL cDNA in the master mix. Cycling conditions were 50° C. for 10 minutes, 95° C. for 2 minutes, then 35 cycles of 95° C. for 30 seconds, and 60° C. for 1 minute. Data was analyzed using SDS 2.0 software (Applied Biosystems, Inc.) using a threshold value of 0.1. The results were imported into Excel and the expression fold changes were calculated using the ΔΔCt method, (User Bulletin #2, PE Applied BioSystems, Inc.). Normalization of signals was performed using the housekeeping gene, GAPDH.

TLR6 [4] = test: TLR6 gene expression in dendritic cells (real-time PCR); format: cell-based, Human
Experimental: as §1, with “Auburn, Calif.). Dendritic cells were differentiated in RPMI 1640 with 10% fetal bovine serum, using 33 ng/mL IL4 and 66 ng/mL GM-CSF, and macrophages were differentiated using 25 ng/mL M-CSF, for seven days at 37° C.” for “Auburn, Calif.).”
as §6, §7

TLR8 gene = TLR8 gene expression in PBMCs (real-time PCR); format: cell-based, Human; conditions: in vitro (FIG. 1, FIG. 4)
Experimental: as §1, with “Auburn, Calif.). Dendritic cells were differentiated in RPMI 1640 with 10% fetal bovine serum, using 33 ng/mL IL4 and 66 ng/mL GM-CSF, and macrophages were differentiated using 25 ng/mL M-CSF, for seven days at 37° C.” for “Auburn, Calif.).”
as §2, §5, §8

TLR7 gene [5] = test: TLR7 gene expression in macrophages (real-time PCR); format: cell-based, Human; conditions: macrophages (FIG. 7)
Experimental: as §1, §2, §3, §4

TLR1 = TLR1 expression in actinic keratosis lesion biopsies, phase II study; format: in vivo, human; conditions: AK lesion, 5% cream (ALDARA) 3 times per week for 4 weeks; highest response time point vs sun-unexposed non-AK skin
From the text: (§9) A phase II, double-blind, vehicle-controlled, randomized, parallel group study included 17 male subjects with histologically confirmed actinic keratosis (AK). Eligible subjects were randomized to receive either IRM5 formulated as a 5% cream (ALDARA, 3M Pharmaceuticals, St. Paul, Minn.) or vehicle cream in a 3:1 ratio. Study subjects had at least five clinically typical, discrete, visible AK lesions within a 25 cm^2 area on the balding scalp that were suitable for shave biopsies.
(§10) Subjects applied 1 sachet (250 mg) of study cream to the treatment area 3 times per week for 4 weeks. Each dose of study cream was applied prior to normal sleeping hours at approximately the same time on each dosing day and was to remain on the skin for approximately 8 hours.
(§11) Each subject could have up to 8 shave biopsies performed. Biopsy samples obtained at the treatment initiation visit and all subsequent visits were designated for gene expression analysis. At the treatment initiation visit (T=0), an intact lesion in the treatment area was biopsied (sample series A) to establish a baseline for AK gene expression. […] The sun-unexposed area biopsy was used to establish baseline control for gene expression. […]
(§12) RNA from each sample was extracted and expression of TLR1, TLR3, TLR6, TLR7, TLR8, TLR9, and TLR10 was analyzed as described in Example 1. […]

TLR8 = TLR8 expression in actinic keratosis lesion biopsies, phase II study; format: in vivo, human; conditions: AK lesion, 5% cream (ALDARA) 3 times per week for 4 weeks; highest response time point vs sun-unexposed non-AK skin
From the text: as §9, §10, §11, §12

TLR6 [6] = test: TLR6 expression in actinic keratosis lesion biopsies, phase II study; format: in vivo, human; conditions: AK lesion, 5% cream (ALDARA) 3 times per week for 4 weeks; highest response time point vs sun-unexposed non-AK skin
From the text: as §9, §10, §11, §12

TLR10 = TLR10 expression in actinic keratosis lesion biopsies, phase II study; format: in vivo, human; conditions: AK lesion, 5% cream (ALDARA) 3 times per week for 4 weeks; highest response time point vs sun-unexposed non-AK skin
From the text: as §9, §10, §11, §12

TLR9 = TLR9 expression in actinic keratosis lesion biopsies, phase II study; format: in vivo, human; conditions: AK lesion, 5% cream (ALDARA) 3 times per week for 4 weeks; highest response time point vs sun-unexposed non-AK skin
From the text: as §9, §10, §11, §12

TLR3 = TLR3 expression in actinic keratosis lesion biopsies, phase II study; format: in vivo, human; conditions: AK lesion, 5% cream (ALDARA) 3 times per week for 4 weeks; highest response time point vs sun-unexposed non-AK skin
From the text: as §9, §10, §11, §12

TLR7 [7] = test: TLR7 expression in actinic keratosis lesion biopsies, phase II study; format: in vivo, human; conditions: AK lesion, 5% cream (ALDARA) 3 times per week for 4 weeks; highest response time point vs sun-unexposed non-AK skin
From the text: as §9, §10, §11, §12

TLR7 gene [8] = test: TLR7 gene expression in PBMCs (real-time PCR); format: cell-based, Human; conditions: in vitro (FIG. 1, FIG. 3)
Experimental: as §1, with “Auburn, Calif.). Dendritic cells were differentiated in RPMI 1640 with 10% fetal bovine serum, using 33 ng/mL IL4 and 66 ng/mL GM-CSF, and macrophages were differentiated using 25 ng/mL M-CSF, for seven days at 37° C.” for “Auburn, Calif.).”
as §6, §7

CCOCc1nc2c(N)nc3c(c2n1CC(C)(C)O)CCCC3 [IRM1, 4-amino-2-(ethoxymethyl)-α,α-dimethyl-6,7,8,9-tetrahydro-1H-imidazo[4,5-c]quinoline-1-ethanol]
modulation of TLR5 gene expression (TLR5 gene): downregulated
modulation of TLR3 gene expression (TLR3 gene [1]): downregulated; also recorded: downregulates gene expression
modulation of expression from TLR7 (TLR7 [2]): may downregulate expression
modulation of TLR3 gene expression (TLR3 gene [3]): upregulates gene expression
modulation of expression from TLR6 (TLR6 [4]): may downregulate expression
modulation of TLR8 gene expression (TLR8 gene): higher and earlier peaks of gene expression
modulation of TLR7 gene expression (TLR7 gene [5]): downregulated

CCCCc1nc2c(N)nc3ccccc3c2n1CCCCNS(C)(=O)=O [IRM3, N-[4-(4-amino-2-butyl-1H-imidazo[4,5-c]quinolin-1-yl)butyl]methanesulfonamide]
modulation of TLR3 gene expression (TLR3 gene [1]): do not significantly modulate gene expression
modulation of TLR3 gene expression (TLR3 gene [3]): upregulate gene expression

CC(C)Cn1cnc2c(N)nc3ccccc3c21 [IRM5, 1-(2-methylpropyl)-1H-imidazo[4,5-c]quinolin-4-amine]
Median Fold Change - IRM5-treated (IRM-treated/Series C), TLR1 (TLR1): 2.1 fold
Median Fold Change - IRM5-treated (IRM-treated/Series C), TLR8 (TLR8): 2.4 fold
Median Fold Change - IRM5-treated (IRM-treated/Series C), TLR6 (TLR6 [6]): 1.9 fold
modulation of TLR3 gene expression (TLR3 gene [1]): do not significantly modulate gene expression
Median Fold Change - IRM5-treated (IRM-treated/Series C), TLR10 (TLR10): 3.6 fold
Median Fold Change - IRM5-treated (IRM-treated/Series C), TLR9 (TLR9): 15.2 fold
modulation of TLR3 gene expression (TLR3 gene [3]): upregulate gene expression
Median Fold Change - IRM5-treated (IRM-treated/Series C), TLR3 (TLR3): 1.5 fold
Median Fold Change - IRM5-treated (IRM-treated/Series C), TLR7 (TLR7 [7]): 4.9 fold

Cc1nc2c(N)nc3ccccc3c2n1CC(C)(C)O [IRM6, 4-amino-α,α,2-trimethyl-1H-imidazo[4,5-c]quinoline-1-ethanol]
modulation of TLR8 gene expression (TLR8 gene): higher and earlier peaks of gene expression

CC(C)Cn1cnc2c(N)nc3cccnc3c21 [IRM7, 1-(2-methylpropyl)-1H-imidazo[4,5-c][1,5]naphthyridin-4-amine]
modulation of TLR3 gene expression (TLR3 gene [3]): little effect on gene expression
modulation of TLR7 gene expression (TLR7 gene [8]): little effect on gene expression
modulation of TLR8 gene expression (TLR8 gene): little effect on gene expression

Cc1nc2c(N)nc3cccnc3c2n1CC(C)C [IRM8, 2-methyl-1-(2-methylpropyl)-1H-imidazo[4,5-c][1,5]naphthyridin-4-amine]
modulation of TLR8 gene expression (TLR8 gene): higher and earlier peaks of gene expression

From US20050059072A1, “Selective modulation of TLR gene expression” (3M Innovative Properties Company, priority 2003, published 2005)
